This is an account of results in publication PMC4151706 (Journal of the American Chemical Society, 2014).

This experiment has as its target HIV-1 protease WT subtype C (Human immunodeficiency virus type 1 group M subtype C, UniProt O12158). Conditions: protease variant subtype C.

Sequence of HIV-1 protease WT subtype C (O12158 485-583): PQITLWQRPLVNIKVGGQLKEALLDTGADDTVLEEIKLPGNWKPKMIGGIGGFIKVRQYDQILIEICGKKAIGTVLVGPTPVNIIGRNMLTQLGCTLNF

In turn, `CC(C)CN(C[C@@H](O)[C@H](Cc1ccccc1)NC(=O)O[C@H]1CO[C@H]2OCC[C@H]21)S(=O)(=O)c1ccc(N)cc1` [DRV, Darunavir] came in with a Ki of 5 ± 2 pM.
